According to patent publication US12319672B2, “Alpha-D-galactopyranoside derivatives” (Idorsia Pharmaceuticals Ltd, priority 2019, dated 2025):

Assays:
human Gal-1 (hGal-1) = assay: Competitive binding assay: binding of biotinylated hGal-1 to microplate-adsorbed asialofetuin (ASF); conditions: Activities on hGal-1; mean values of several measurements
How it was run: (§1)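 For hGal-1, a variant with all six cysteines replaced by serines is preferred. Either galectin, biotinylated at 300-1000 ng/mL, competes with compound for microplate-bound ASF over 3 h at 4° C; peroxidase/ABTS detection gives IC50, averaged.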

human Gal-3 (hGal-3) = human Gal-3 (hGal-3) (Homo sapiens (Human), UniProt P17931); assay: Competitive binding assay: binding of biotinylated hGal-3 to microplate-adsorbed asialofetuin (ASF); conditions: Activity on hGal-3; mean values of several measurements
How it was run: as §1

Sequence of human Gal-3 (hGal-3) (P17931 whole entry): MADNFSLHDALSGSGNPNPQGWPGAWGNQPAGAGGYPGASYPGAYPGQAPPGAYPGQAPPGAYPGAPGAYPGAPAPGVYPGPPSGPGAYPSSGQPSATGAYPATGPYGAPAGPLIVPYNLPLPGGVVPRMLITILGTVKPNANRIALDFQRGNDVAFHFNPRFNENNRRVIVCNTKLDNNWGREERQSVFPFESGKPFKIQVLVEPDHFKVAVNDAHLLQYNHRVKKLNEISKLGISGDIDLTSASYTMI
Sequence of human Gal-1 (hGal-1) (P09382 2-135 limits assumed): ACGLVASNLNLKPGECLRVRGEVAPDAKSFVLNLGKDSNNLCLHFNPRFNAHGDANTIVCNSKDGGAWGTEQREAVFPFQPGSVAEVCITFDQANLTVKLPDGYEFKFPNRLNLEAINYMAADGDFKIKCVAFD

| SMILES | IC50 (human Gal-1 (hGal-1)) [nM] | IC50 (human Gal-3 (hGal-3)) [nM] |
| --- | --- | --- |
| CO[C@@H]1[C@@H](n2cc(-c3cc(F)cc(F)c3)nn2)[C@@H](O)[C@@H](CO)O[C@@H]1CC1CC(C2CCN(C(=O)OC(C)(C)C)CC2)=NO1 (some centres unmarked) [Ex 1.118] | 1470 | 330 |
| CO[C@@H]1[C@@H](n2cc(-c3cc(F)c(F)c(F)c3)nn2)[C@@H](O)[C@@H](CO)O[C@@H]1Cc1cc(C(C)(C)O)no1 [Example 2.60, (2R,3R,4S,5R,6R)-2-(hydroxymethyl)-6-((3-(2-hydroxypropan-2-yl)isoxazol-5-yl)methyl)-5-methoxy-4-(4-(3,4,5-trifluorophenyl)-1H-1,2,3-triazol-1-yl)tetrahydro-2H-pyran-3-ol] | 7390 | 400 |
| OC[C@H]1O[C@H](C[C@H]2CC(C3CCCCC3)=NO2)[C@H](O)[C@@H](n2cc(-c3cc(F)c(F)c(F)c3)nn2)[C@H]1O [Ex 1.06] | 22200 | 1800 |
| CO[C@@H]1[C@@H](n2cc(-c3cc(F)c(F)c(F)c3)nn2)[C@@H](O)[C@@H](CO)O[C@@H]1Cc1cc(C2CCN(C(C)=O)CC2)on1 [Example 3.21, 1-(4-(3-(((2R,3R,4S,5R,6R)-5-hydroxy-6-(hydroxymethyl)-3-methoxy-4-(4-(3,4,5-trifluorophenyl)-1H-1,2,3-triazol-1-yl)tetrahydro-2H-pyran-2-yl)methyl)isoxazol-5-yl)piperidin-1-yl)ethan-1-one] | 590 | 46 |
| CC(=O)O[C@@H]1[C@@H](n2cc(-c3cc(F)c(F)c(F)c3)nn2)[C@@H](O)[C@@H](CO)O[C@@H]1CC1CC(C2CCN(C(=O)OC(C)(C)C)CC2)=NO1 (some centres unmarked) [Ex 1.44] | 1710 | 65 |
| CC(C)(C)OC(=O)N1CC(c2cc(C[C@H]3O[C@H](CO)[C@H](O)[C@H](n4cc(-c5cc(F)c(F)c(F)c5)nn4)[C@H]3O)no2)C1 [Ex 1.53] | 2870 | 350 |
| CCOC(=O)N1CCC(c2cc(C[C@H]3O[C@H](CO)[C@H](O)[C@H](n4cc(-c5cc(F)cc(Cl)c5)nn4)[C@H]3OC)no2)CC1 [Ex 1.200] | 1510 | 120 |
| CO[C@@H]1[C@@H](n2cc(-c3cc(F)c(F)c(F)c3)nn2)[C@@H](O)[C@@H](CO)O[C@@H]1Cn1cnc(C(C)(C)C)c1 [Example 6.04, (2R,3R,4S,5R,6R)-6-((4-(tert-butyl)-1H-imidazol-1-yl)methyl)-2-(hydroxymethyl)-5-methoxy-4-(4-(3,4,5-trifluorophenyl)-1H-1,2,3-triazol-1-yl)tetrahydro-2H-pyran-3-ol] | 2380 | 180 |
| CO[C@@H]1[C@@H](n2cc(-c3cc(F)c(Cl)c(F)c3)nn2)[C@@H](O)[C@@H](CO)O[C@@H]1Cc1cc(C2CCCCC2)on1 [Ex 1.176] | > 100000 | 870 |
| Cc1ccc(-c2cn([C@H]3[C@@H](O)[C@@H](CO)O[C@H](Cc4cc(C(C)(C)C)no4)[C@@H]3OCc3nccn3C)nn2)c(F)c1F [Example 2.52, (2R,3R,4S,5R,6R)-6-((3-(tert-butyl)isoxazol-5-yl)methyl)-4-(4-(2,3-difluoro-4-methylphenyl)-1H-1,2,3-triazol-1-yl)-2-(hydroxymethyl)-5-((1-methyl-1H-imidazol-2-yl)methoxy)tetrahydro-2H-pyran-3-ol] | 5130 | 78 |
| CO[C@@H]1[C@@H](n2cc(-c3cc(F)c(F)c(F)c3)nn2)[C@@H](O)[C@@H](CO)O[C@@H]1CC1CN(C2CCN(C(=O)OC(C)(C)C)CC2)C(=O)O1 (mixture of isomers) [Example 5.09, tert-butyl 4-((RS)-5-(((2R,3R,4S,5R,6R)-5-hydroxy-6-(hydroxymethyl)-3-methoxy-4-(4-(3,4,5-trifluorophenyl)-1H-1,2,3-triazol-1-yl)tetrahydro-2H-pyran-2-yl)methyl)-2-oxooxazolidin-3-yl)piperidine-1-carboxylate] | 460 | 83 |
| CO[C@@H]1[C@@H](n2cc(-c3cc(F)c(F)c(F)c3)nn2)[C@@H](O)[C@@H](CO)O[C@@H]1Cc1cc(C2CCN(S(=O)(=O)N(C)C)CC2)on1 [Example 3.58, 4-(3-(((2R,3R,4S,5R,6R)-5-hydroxy-6-(hydroxymethyl)-3-methoxy-4-(4-(3,4,5-trifluorophenyl)-1H-1,2,3-triazol-1-yl)tetrahydro-2H-pyran-2-yl)methyl)isoxazol-5-yl)-N,N-dimethylpiperidine-1-sulfonamide] | 1870 | 61 |
| CO[C@@H]1[C@@H](n2cc(-c3cc(F)c(F)c(F)c3)nn2)[C@@H](O)[C@@H](CO)O[C@@H]1CC1=NOC(C(C)(C)C)C1 (some centres unmarked) [Ex 1.66] | 3760 | 1080 |
| CO[C@@H]1[C@@H](n2cc(-c3cc(F)c(C)c(F)c3)nn2)[C@@H](O)[C@@H](CO)O[C@@H]1Cc1cc(C(C)(C)C)on1 [Ex 1.188] | 7620 | 180 |
| CO[C@@H]1[C@@H](n2cc(-c3cc(F)c(F)c(F)c3)nn2)[C@@H](O)[C@@H](CO)O[C@@H]1Cc1cc(C2(OC)CCCC2)no1 [Ex 1.209] | 3660 | 260 |
| CO[C@@H]1[C@@H](n2cc(-c3ccc(Cl)c(F)c3F)nn2)[C@@H](O)[C@@H](CO)O[C@@H]1Cc1cc(C2CCCCC2)on1 [Ex 1.172] | 57000 | 260 |

| SMILES | IC50 (human Gal-1 (hGal-1)) [nM] | IC50 (human Gal-3 (hGal-3)) [nM] |
| --- | --- | --- |
| CC(C)(C)OC(=O)N1CCC(C2=NOC(C[C@H]3O[C@H](CO)[C@H](O)[C@H](n4cc(-c5ccc(C#N)c(F)c5)nn4)[C@H]3O)C2)CC1 (some centres unmarked) [Ex 1.100] | 4900 | 650 |
| CC(C)(C)OC(=O)NC1CCC(c2cc(C[C@H]3O[C@H](CO)[C@H](O)[C@H](n4cc(-c5cc(F)c(F)c(F)c5)nn4)[C@H]3O)no2)CC1 (some centres unmarked) [Ex 1.80] | 43800 | 110 |
| CO[C@@H]1[C@@H](n2cc(-c3cc(F)c(F)c(F)c3)nn2)[C@@H](O)[C@@H](CO)O[C@@H]1C[C@@H]1CC(C2CCCCC2)=NO1 [Ex 1.10] | 5390 | 560 |
| CCNC(=O)O[C@@H]1[C@@H](n2cc(-c3ccc(C)c(F)c3F)nn2)[C@@H](O)[C@@H](CO)O[C@@H]1Cc1cc(C(C)(C)C)no1 [Example 2.51, (2R,3R,4S,5R,6R)-2-((3-(tert-butyl)isoxazol-5-yl)methyl)-4-(4-(2,3-difluoro-4-methylphenyl)-1H-1,2,3-triazol-1-yl)-5-hydroxy-6-(hydroxymethyl)tetrahydro-2H-pyran-3-yl ethylcarbamate] | > 100000 | 46 |
| CO[C@@H]1[C@@H](n2cc(-c3ccc(C)c(F)c3F)nn2)[C@@H](O)[C@@H](CO)O[C@@H]1Cc1cc(C(C)(O)c2ccccc2)on1 (some centres unmarked) [Ex 1.318] | 8870 | 160 |
| CO[C@@H]1[C@@H](n2cc(-c3cc(F)c(F)c(F)c3)nn2)[C@@H](O)[C@@H](CO)O[C@@H]1Cc1cc(C2(C)CCCC2)on1 [Ex 1.272] | 3490 | 250 |
| OC[C@H]1O[C@H](CC2CC(c3cn[nH]c3)=NO2)[C@H](O)[C@@H](n2cc(-c3cc(F)c(F)c(F)c3)nn2)[C@H]1O (some centres unmarked) [Ex 1.27] | 6540 | 410 |
| CO[C@@H]1[C@@H](n2cc(-c3cc(F)c(Cl)c(F)c3)nn2)[C@@H](O)[C@@H](CO)O[C@@H]1Cc1cc(C2CCN(S(C)(=O)=O)CC2)on1 [Ex 1.158] | 1520 | 66 |
| CO[C@@H]1[C@@H](n2cc(-c3cc(F)c(F)c(F)c3)nn2)[C@@H](O)[C@@H](CO)O[C@@H]1Cn1cc(C(C)(C)C)nn1 [Example 4.38, (2R,3R,4S,5R,6R)-6-((4-(tert-butyl)-1H-1,2,3-triazol-1-yl)methyl)-2-(hydroxymethyl)-5-methoxy-4-(4-(3,4,5-trifluorophenyl)-1H-1,2,3-triazol-1-yl)tetrahydro-2H-pyran-3-ol] | 1810 | 93 |
| CO[C@@H]1[C@@H](n2cc(-c3cc(F)c(F)c(F)c3)nn2)[C@@H](O)[C@@H](CO)O[C@@H]1Cc1cn(C2CCCCC2)nn1 [Example 4.30, (2R,3R,4S,5R,6R)-6-((1-cyclohexyl-1H-1,2,3-triazol-4-yl)methyl)-2-(hydroxymethyl)-5-methoxy-4-(4-(3,4,5-trifluorophenyl)-1H-1,2,3-triazol-1-yl)tetrahydro-2H-pyran-3-ol] | 2920 | 85 |
| OC[C@H]1O[C@H](Cc2cc(C3CCC(O)CC3)on2)[C@H](O)[C@@H](n2cc(-c3cc(F)c(F)c(F)c3)nn2)[C@H]1O (stereo partly drawn) [Example 2.14, (2R,3R,4R,5R,6R)-2-((5-((1r,4r)-4-hydroxycyclohexyl)isoxazol-3-yl)methyl)-6-(hydroxymethyl)-4-(4-(3,4,5-trifluorophenyl)-1H-1,2,3-triazol-1-yl)tetrahydro-2H-pyran-3,5-diol] | 4580 | 190 |
| CO[C@@H]1[C@@H](n2cc(-c3ccc(Cl)c(F)c3F)nn2)[C@@H](O)[C@@H](CO)O[C@@H]1Cc1cc(C2CCCC2)on1 [Ex 1.245] | 1860 | 67 |
| OC[C@H]1O[C@H](Cc2cc(C3CCCC3)on2)[C@H](O)[C@@H](n2cc(-c3cc(F)c(F)c(F)c3)nn2)[C@H]1O [Ex 1.57] | 12500 | 400 |
| Cc1cc(-c2cn([C@H]3[C@@H](O)[C@@H](CO)O[C@H](CC4CC(C5CCN(C(=O)OC(C)(C)C)CC5)=NO4)[C@@H]3O)nn2)ccc1F (some centres unmarked) [Ex 1.99] | 471 | 400 |
| CC(C)(C)c1cc(C[C@H]2O[C@H](CO)[C@H](O)[C@H](n3cc(-c4cc(F)c(F)c(F)c4)nn3)[C@H]2OCC(=O)N2CC[C@H](O)C2)no1 [Example 2.42, 2-(((2R,3R,4S,5R,6R)-2-((5-(tert-butyl)isoxazol-3-yl)methyl)-5-hydroxy-6-(hydroxymethyl)-4-(4-(3,4,5-trifluorophenyl)-1H-1,2,3-triazol-1-yl)tetrahydro-2H-pyran-3-yl)oxy)-1-((S)-3-hydroxypyrrolidin-1-yl)ethan-1-one] | 3270 | 180 |
